Key:
human CYP1A2 = biological target: T1, human CYP1A2 (Homo sapiens, UniProt P05177); assay: Metapristone metabolism by cDNA-expressed recombinant human CYP1A2; type: in vitro ADME; settings: 9 µM
T1 construct: made in house; host or cells: insect cells
T1 sequence (P05177 1-516): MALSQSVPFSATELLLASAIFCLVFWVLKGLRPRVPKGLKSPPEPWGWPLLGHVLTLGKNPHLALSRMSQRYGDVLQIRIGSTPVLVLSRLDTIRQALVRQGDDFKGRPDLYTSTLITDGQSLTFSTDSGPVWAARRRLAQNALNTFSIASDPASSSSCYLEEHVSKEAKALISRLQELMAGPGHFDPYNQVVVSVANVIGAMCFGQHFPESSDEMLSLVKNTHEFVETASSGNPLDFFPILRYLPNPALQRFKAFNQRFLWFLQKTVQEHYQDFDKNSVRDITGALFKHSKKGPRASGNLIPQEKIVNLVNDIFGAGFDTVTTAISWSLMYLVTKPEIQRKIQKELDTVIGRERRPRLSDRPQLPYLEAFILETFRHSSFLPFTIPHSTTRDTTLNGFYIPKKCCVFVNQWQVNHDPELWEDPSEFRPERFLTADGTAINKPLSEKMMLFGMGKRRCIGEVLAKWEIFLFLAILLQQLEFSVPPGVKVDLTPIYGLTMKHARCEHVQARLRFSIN
Description: To identify CYP450 isomers which were responsible for the sex different metabolism of metapristone, both CYP450 inhibitors and cDNA-expressed recombinant human CYPs were used[11]. […] The reactions of the control groups with control rat liver microsomes (heated to 80 °C for 5 min to inactivate enzymes) to inactivate enzymes or without NADPH were also included. […] The cDNA-expressed recombinant human CYPs were prepared from insect cells transfected with cDNAs encoding for human CYP1A2 or CYP3A4. […] Each reaction was then started by the addition of metapristone (9 µM) with subsequent mixing of each sample by inversion. […] Metapristone were identified by the LC/MS/MS method. Peak areas formed were used for quantitative analyses. Control incubation mixtures included mixtures without inhibitors, and mixtures with untransfected insect cell microsomes used as microsomal control, and mixtures that contained methanol instead of inhibitor (methanol control). Quantitative analyses were performed by comparing the peak areas of the inhibition reactions to their respective methanol controls. The total organic solvent content of the in vitro reaction mixtures was less than 2%.

CYP1A2 = assay: Western blotting of rat liver CYP1A2 after 7-day oral metapristone; type: in vivo
Description: To further confirm CYP1A2 and CYP3A4 are the primary CYP isoforms that metabolize metapristone, we administered oral metapristone (22.5 and 45 mg/kg/day for 7 days) to male and female rats, respectively, and measured the activity of liver CYP1A2 and CYP3A4 by using the western blotting assay. We selected western blot staining density from the controls as the basis (100%) to compare changes in CYP1A2 and CYP3A4 activity after metapristone treatment.
The total microsomal protein was extracted from rat livers prepared by diluting liver microsomal suspension with 1 volume of immunoprecipitation assay lysis buffer (150 mM NaCl, 1% NP-40, 0.5% sodium deoxy-cholic acid, 0.1% SDS, and 50 mM Tris-Cl, pH 7.5) for 15 min and then centrifuged at 13,000 rpm 4 °C for 10 min. Aliquots containing 20 µg of protein were separated by SDS-PAGE on a 10% gradient gel (Invitrogen, USA) and transferred to a PVDF membrane that was blocked with 5% non-fat dry milk in Tris-buffered saline with Tween 20 (200 mM Tris–HCl, 1.37 M NaCl, 0.1% Tween 20, pH 7.6) for 1 h. The membrane was then incubated with rabbit anti-rat CYP1A2 polyclonal antibody (1:2000 dilution), rabbit anti-rat CYP3A4 polyclonal antibody (1:1000 dilution) and glyceraldehyde-3-phosphate dehydrogenase (GAPDH) antibody (1:2000 dilution), overnight at 4 °C. After rinsing five times with buffer TBST at room temperature, the membrane was incubated with horseradish peroxidase (HRP)-labeled anti-rabbit immunoglobulin G (IgG) anti-body (Santa Cruz Biotechnology, USA). The immunoreactive bands were visualized using an enhanced chemiluminescence detection system (ChemiDoc™XRS + , Bio-Rad, Hercules, CA, USA) and quantified by using densitometry Image J 1.41 software.

CC#C[C@]1(O)CC[C@H]2[C@@H]3CCC4=CC(=O)CCC4=C3[C@@H](c3ccc(NC)cc3)C[C@@]21C [metapristone, N-monodemethyl mifepristone]
metapristone remained (human CYP1A2; 120 min incubation with CYP1A2, absence of inhibitor): 47.9% | metapristone survived (human CYP1A2; 120 min incubation with CYP1A2, plus α-naphthoflavone 10 µM): 89.9% | CYP1A2 western blot staining density relative to controls (100%) (CYP1A2; female rats, 22.5 mg/kg/day p.o. for 7 days): 120 ± 16% | CYP1A2 western blot staining density relative to controls (100%) (CYP1A2; female rats, 45 mg/kg/day p.o. for 7 days): 147 ± 21% | CYP1A2 western blot staining density relative to controls (100%) (CYP1A2; male rats, 22.5 mg/kg/day p.o. for 7 days): 156 ± 19% | CYP1A2 western blot staining density relative to controls (100%) (CYP1A2; male rats, 45 mg/kg/day p.o. for 7 days): 163 ± 12%

— article PMC5719405, “Sex-related pharmacokinetic differences and mechanisms of metapristone (RU486 metabolite)” (Scientific Reports, 2017)
